Reference: patent US6391891B1, “Bicyclic compounds as ligands for 5-HT1 receptors” (SmithKline Beecham plc, priority 1997, dated 2002)

Key:
[1] = molecular target: T1, 5-HT1A receptors (Homo sapiens, UniProt P08908); test: 5-HT1A receptor radioligand binding assay ([3H]-8-OH DPAT); settings: HEK 293 cells expressing 5-HT1A receptors; [3H]-8-OH DPAT 1 nM; 37° C., 45 minutes; read-out: pKi at 5-HT1A receptors (converted)
T1 construct: expressed in transfected cells; host or cells: HEK 293 cells
T1 sequence (P08908 1-422): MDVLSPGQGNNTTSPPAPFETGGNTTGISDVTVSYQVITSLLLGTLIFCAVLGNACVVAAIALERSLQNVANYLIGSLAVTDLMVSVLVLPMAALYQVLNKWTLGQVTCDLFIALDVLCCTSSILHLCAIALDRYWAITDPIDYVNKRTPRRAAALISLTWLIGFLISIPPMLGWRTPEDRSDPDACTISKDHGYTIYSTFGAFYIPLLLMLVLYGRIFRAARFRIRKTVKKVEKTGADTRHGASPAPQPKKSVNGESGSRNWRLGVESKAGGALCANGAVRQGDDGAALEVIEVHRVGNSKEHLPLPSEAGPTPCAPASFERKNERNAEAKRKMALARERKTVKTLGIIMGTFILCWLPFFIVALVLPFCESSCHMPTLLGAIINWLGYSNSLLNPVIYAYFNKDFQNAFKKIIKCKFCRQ
Protocol: (§1) The affinities of the compounds of this invention for the 5HT1A, 5-HT1B and 5-HT1D receptors can be determined by the following radioligand binding assay. HEK 293 cells expressing 5-HT1A receptors (4×10^7/ml) are homogenised in Tris buffer and stored in 1 ml aliquots. CHO cells expressing 5-HT1B receptors (4×10^7 cells/ml) are homogenised in Tris buffer and stored in 1.5 ml aliquots. CHO cells expressing 5-HT1D receptors (0.563×10^8/ml) are homogenised in Tris buffer and stored in 1 ml aliquots. 0.4 ml of a cell suspension is incubated with [^3H]-5-HT (4 nM) for 5-HT1B/1D receptors and [^3H]-8-OH DPAT (1 nM) for 5-HT1A receptors in Tris Mg HCl buffer (pH 7.7) and test drug, at 37° C. for 45 minutes. Each test drug is tested at 10 concentrations (0.01 mM to 0.3 nM final concentration), with non-specific binding defined using 0.01 mM 5-HT. The total assay volume is 0.5 ml. Incubation is stopped by rapid filtration using a Packard Filtermate (filters pre-soaked in 0.3% polyethylenimine) and radioactivity measured by Topcount scintillation counting. pKi values are calculated from the IC50 generated by an iterative least squares curve fitting programme.
(§2) The affinities of the compounds of this invention were determined by methods described above.
(§3) 5-HT1A, 5-HT1B and 5-HT1D Receptor Binding

[2] = molecular target: T2, 5-HT1B receptors (Homo sapiens, UniProt P28222); test: 5-HT1B receptor radioligand binding assay ([3H]-5-HT); settings: CHO cells expressing 5-HT1B receptors; [3H]-5-HT 4 nM; 37° C., 45 minutes; read-out: pKi at 5-HT1B receptors (converted)
T2 construct: expressed in transfected cells; host or cells: CHO cells
T2 sequence (P28222 whole entry): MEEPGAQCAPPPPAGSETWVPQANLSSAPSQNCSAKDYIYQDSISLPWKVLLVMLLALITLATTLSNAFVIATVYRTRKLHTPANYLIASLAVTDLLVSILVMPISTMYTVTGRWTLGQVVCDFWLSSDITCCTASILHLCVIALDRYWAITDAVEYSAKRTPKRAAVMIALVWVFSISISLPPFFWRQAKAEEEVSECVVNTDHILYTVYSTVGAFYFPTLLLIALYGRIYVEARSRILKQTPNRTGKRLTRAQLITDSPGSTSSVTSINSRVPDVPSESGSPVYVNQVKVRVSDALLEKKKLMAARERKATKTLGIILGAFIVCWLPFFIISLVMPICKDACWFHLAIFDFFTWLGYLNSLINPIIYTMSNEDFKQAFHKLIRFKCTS
Protocol: as §1, §2, §3

[3] = molecular target: T3, 5-HT1D receptors (Homo sapiens, UniProt P28221); test: 5-HT1D receptor radioligand binding assay ([3H]-5-HT); settings: CHO cells expressing 5-HT1D receptors; [3H]-5-HT 4 nM; 37° C., 45 minutes; read-out: pKi at 5-HT1D receptors (converted)
T3 construct: expressed in transfected cells; host or cells: CHO cells
T3 sequence (P28221 whole entry): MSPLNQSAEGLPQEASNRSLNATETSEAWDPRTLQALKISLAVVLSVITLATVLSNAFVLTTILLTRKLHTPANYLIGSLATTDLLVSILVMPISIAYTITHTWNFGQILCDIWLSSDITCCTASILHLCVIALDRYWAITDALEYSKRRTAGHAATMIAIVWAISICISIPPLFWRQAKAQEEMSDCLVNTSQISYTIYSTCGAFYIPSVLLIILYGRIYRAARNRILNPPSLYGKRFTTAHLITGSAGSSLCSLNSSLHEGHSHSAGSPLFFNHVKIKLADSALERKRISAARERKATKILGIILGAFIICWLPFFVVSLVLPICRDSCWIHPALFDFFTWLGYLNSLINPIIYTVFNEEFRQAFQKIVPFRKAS
Protocol: as §1, §2, §3

SMILES	Ki [1]	Ki [2]	Ki [3]
CN1CCC(c2c[nH]c3ccc(NC(=O)Nc4ccc(-c5ccncc5)c5ccccc45)cc23)CC1 [Example 1, N-[3-(1-Methylpiperdin-4-yl)indol-5-yl]-N′-[4-(pyridin-4-yl)naphth-1-yl]-urea]	< 10 nM	< 10 nM	< 10 nM
CN1CC=C(c2csc3ccc(NC(=O)Nc4ccc(-c5ccncc5)c(Cl)c4)cc23)CC1 [Example 9, N-[3-Chloro-4-(pyridin-4-yl)phenyl]-N′-[3-(1-methyl-1,2,5,6-tetrahydropyridin-4-yl)benzo[b]thiophen-5-yl]-urea]	< 10 nM	< 10 nM	< 10 nM
CN1CC=C(c2csc3ccc(NC(=O)Nc4ccc(-c5ccncc5)c5ccccc45)cc23)CC1 [Example 10, N-[3-(1-Methyl-1,2,5,6-tetrahydropyridin-4-yl)benzo[b]thiophen-5-yl]-N′-[4-(pyridin-4-yl)naphth-1-yl]-urea]	< 10 nM	< 10 nM	< 10 nM
CN1CCC(c2csc3ccc(NC(=O)Nc4ccc(-c5ccncc5)c5ccccc45)cc23)CC1 [Example 12, N-[3-(1-Methylpiperidin-4-yl)benzo[b]thiophen-5-yl]-N′-[-4-(pyridin-4-yl)naphth-1-yl]-urea]	< 10 nM	< 10 nM	< 10 nM

Second part, the molecule after the results:

Ki [1]	Ki [2]	Ki [3]	SMILES
< 10 nM	< 10 nM	< 10 nM	CN1CCC(c2c[nH]c3ccc(NC(=O)Nc4ccc(-c5ccncc5)c(Cl)c4Cl)cc23)CC1 [Example 3, N-[2,3-Dichloro-4-(pyridin-4-yl)phenyl]-N′-[3-(1-methylpiperidin-4-yl)indol-5-yl]-urea]
< 10 nM	< 10 nM	< 10 nM	CN1CCC(c2c[nH]c3ccc(NC(=O)Nc4ccc(-c5ccncc5)cc4Cl)cc23)CC1 [Example 4, N-[2-Chloro-4-(pyridin-4-yl)phenyl]-N′-[3-(1-methylpiperidin-4-yl)indol-5-yl]-urea]
< 10 nM	< 10 nM	< 10 nM	CN1CCC(c2c[nH]c3ccc(NC(=O)Nc4ccc(-c5ccncc5)c(Cl)c4)cc23)CC1 [Example 8, N-[3-Chloro-4-(pyridin-4-yl)phenyl]-N′-[3-(1-methylpiperidin-4-yl)indol-5-yl]-3-urea]
